Results taken from patent publication US4675319A, “Antianaphylactic and antibronchospastic piperazinyl-(N-substituted phenyl)carboxamides, compositions and use” (Recordati S. A. Chemical and Pharmaceutical Company, priority 1985, dated 1987).
Where a name gives a salt, the structure may show the parent alone. Read-outs that look alike come from different tables or passages of the source.

Assays:
[1] = Acute toxicity LD50 in the mouse (method of Weil); settings: in vivo
Text: (§1) The novel compounds of the present invention are characterized by high antianaphylactic and antibronchospastic activity and by a low toxicity. The LD50 of the novel piperazine derivatives has been determined in the mouse, both ip and per os, following the method described by C. S. Weil, Biometrics, 8, 249 (1952). In order to evaluate the antianaphylactic activity of said novel compounds, the method of Goose and Blair was followed, in which passive cutaneous anaphylaxis (PCA) was induced in the rat with homologous antibodies [Immunology, 16, 749, (1969)].
(§2) In the Table which follows, the results obtained utilizing the above tests are reported. The LD50 and the DE50 in the PCA test are expressed in […]. The DE50 for the antibronchospastic activity (BSP) is expressed in μm/kg i.v. (bronchospasm induced by histamine (H) and acetylcholine (A)). In the TXA2 test, (C) is the concentration in μg/ml, whereas (I%) denotes the maximal inhibition percentage. In the PLA test, the DE50 is expressed in μM/kg i.v. (evaluated 5 and 10 minutes after administration).

[2] = test system: passive cutaneous anaphylaxis (PCA); experiment: Passive cutaneous anaphylaxis (PCA) in the rat with homologous antibodies (method of Goose and Blair); assay type: in vivo; settings: 0.5 h, inhibition of spots areas, 30 minutes after challenge
Text: as §1
Female albino rate were immunized intramuscularly with egg albumin and intraperitoneally with Haemophylus pertussis vaccine. Twelve days after treatment, the animals were bled and sera thus obtained were injected intradermally into another group of rats. Twenty-four hours later, the animals were challenged with an i.v. solution of ovoalbumin and Evans blue dye, and sacrificed after 30 minutes. The test drugs were given by different routes of administration and at different times before the challenge. Inhibition of spots areas (ED50) was determined.
as §2

[3] = test system: bronchospasm induced by histamine; experiment: Inhibition of bronchospasm (BSP) induced by histamine in anaesthetized guinea pig (Konzett and Roessler); assay type: in vivo; settings: Cavia porcellus, iv, 1 min, histamine 0.5-25 μg/kg i.v., one minute after injection of drug, read-out: BSP, ED50 H
Experimental: (§3) The antibronchospastic activity was determined according to the method of Konzett and Roessler, Arch., Exp. Path. Pharmakol., 195, 71 (1940), entailing the inhibition of bronchospasm induced in anaesthesized guinea pig by histamine and acetylcholine. For this purpose, the bronchospasms were induced by administering intravenously to the animals 0.5-25 μg/kg of hystamine or 2.5-10 μg/kg of acetylcholine. Inhibition (ED50) was determined one minute after injection of the drug under test.
as §2

[4] = test system: bronchospasm induced by acetylcholine; experiment: Inhibition of bronchospasm (BSP) induced by acetylcholine in anaesthetized guinea pig (Konzett and Roessler); assay type: in vivo; settings: Cavia porcellus, iv, 1 min, acetylcholine 2.5-10 μg/kg i.v., one minute after injection of drug
Experimental: as §3, §2

[5] = test system: passive lung anaphylaxis (PLA); experiment: Passive lung anaphylaxis (PLA): antigen induced bronchoconstriction in passively sensitized rat (method of Greenberg et al); assay type: in vivo; settings: iv, i.v.
Experimental: Inhibition of passive lung anaphylaxis (PLA) was studied in a model of antigen induced bronchoconstriction in sensitized rat, according to the method described by Greenberg et al, Can. J. Physiol. Pharmacol., 57, 48 (1979). Female albino rate were passively sensitized by intravenous injection of homologous anti-egg albumin serum. Twenty-four hours later the rats were anaesthetized with pentobarbital (35 mg/kg i.p.) and spontaneous respiration was arrested by administration of tubocurarine (0.75 mg/kg i.v.).
Bronchocostriction was induced by egg albumin intravenously administered and measured by the Konzett and Roessler method Arch. Exp. Path. Pharmakol., 195, 71, (1940). The compounds were injected intravenously one minute before antigen challenge. The inhibitory effect (ED50) was evaluated 5 and 10 minutes after i.v. administration of the drugs under test.
as §2

TXA2 = TXA2 inhibition in perfused guinea-pig lungs challenged with bradykinin (method of Berti et al); settings: C = 10 μg/ml, bradykinin 0.25-0.5 μg
Experimental: The TXA2 inhibition was evaluated according to the method of Berti et al Brit. J. Pharmacol., 68, 467 (1980). Lungs from female or male guinea-pigs were perfused through the pulmonary artery with Krebs bicarbonate (5 ml/min, 37° C.). The pulmonary outflow superfused strips of rabbit mesenteric artery and rabbit aorta in cascade, in order to monitor TXA2 activity. These tissues were superfused with a mixture of receptor antagonist and indomethacin to […] their selectivity and sensitivity. Lungs were challenged with a single injection of bradykinin (0.25-0.5 μg) which is known to increase generation of TXA2 from the pulmonary tissue. The novel compounds of the invention were perfused at different concentrations through the lungs 30 and 60 minutes before agonists.
as §2

[6] = 5 min, evaluated 5 minutes after administration, read-out: PLA, ED50 5'
[7] = 10 min, evaluated 10 minutes after administration, read-out: PLA, ED50 10'

Row | Structure (SMILES) | LD50 ([1]; ip, read-out: LD50 ip) | LD50 ([1]; po, per os, read-out: LD50 os) | ED50 [2] | ED50 [3] | ED50 [4] | ED50 [5, 6] | ED50 [5, 7] | TXA2 I % (maximal inhibition percentage) (TXA2)
1 | CNc1cccc(NC(=O)CCN2CCN(C(c3ccccc3)c3ccccc3)CC2)c1 [Compound 1, 3-(4-benzhydryl-1-piperazinyl)-N,3-methylaminophenylpropionamide] | 240 µmol/kg | 580 µmol/kg | 13 µmol/kg | 0.25 µmol/kg |  |  |  | 
2 | CN(C)c1cccc(NC(=O)CCN2CCN(C(c3ccccc3)c3ccccc3)CC2)c1 [Compound 2, 3-(4-benzhydryl-1-piperazinyl)-N,3-dimethylaminoophenylpropionamide trihydrochloride hemihydrate] | 260 µmol/kg | 340 µmol/kg | > 69 µmol/kg |  |  |  |  | 
3 | CN(C)c1ccc(NC(=O)CCN2CCN(C(c3ccccc3)c3ccccc3)CC2)cc1 [Compound 3, 3-(4-benzhydryl-1-piperazinyl)-N,4-dimethylaminophenylpropionamide] |  | > 7000 µmol/kg | 25 µmol/kg | 1.1 µmol/kg | 0.8 µmol/kg | 0.02 µmol/kg | 0.02 µmol/kg | 
4 | Nc1cccc(NC(=O)CCN2CCN(C(c3ccccc3)c3ccccc3)CC2)c1 [Compound 4, 3-(4-benzhydryl-1-piperazinyl)-N,3-aminophenylpropionamide] |  | 5000 µmol/kg | 8 µmol/kg | 0.21 µmol/kg | 0.4 µmol/kg | 0.04 µmol/kg | 0.08 µmol/kg | 47%
5 | Nc1ccc(NC(=O)CCN2CCN(C(c3ccccc3)c3ccccc3)CC2)cc1 [Compound 5, 3-(4-benzhydryl-1-piperazinyl)-N,4-aminophenylpropionamide] |  | 7200 µmol/kg | 28 µmol/kg | 0.23 µmol/kg |  |  |  | 
6 | CN(C(=O)CCN1CCN(C(c2ccccc2)c2ccccc2)CC1)c1cccc(N)c1 [Compound 6, 3-(4-benzhydryl-1-piperazinyl)-N,3-aminophenvl-N-methylpropionamide] | > 2330 µmol/kg | > 7000 µmol/kg | 10 µmol/kg | 0.12 µmol/kg | 0.4 µmol/kg | 0.65 µmol/kg | 0.69 µmol/kg | 0.8%
7 | CNC(=O)Nc1ccc(NC(=O)CCN2CCN(C(c3ccccc3)c3ccccc3)CC2)cc1 [Compound 7, 3-(4-benzhydryl-1-piperazinyl)-N,4-methylureidophenylpropionamide] | 1750 µmol/kg | > 5900 µmol/kg | 73 µmol/kg |  |  |  |  | 
8 | CN(C)c1ccc(NC(=O)CCCN2CCN(C(c3ccccc3)c3ccccc3)CC2)cc1 [Compound 8] | 230 µmol/kg | 430 µmol/kg | 10 µmol/kg | 1.1 µmol/kg | > 3 µmol/kg | 0.84 µmol/kg | 0.84 µmol/kg | 
